Where two headings read alike, the source gives them in different places.

Results on nine molecules are retold here after patent US5853748A, “Pharmaceutical compositions” (priority 1994, dated 1998).

The nature of data set [1]: In vivo efficacy study, salmon calcitonin, intrajejunal, pigs (plasma calcium). On the set-up: species or system Pigs (large white×large white/landrace). The conditions noted are these: […] iu sCT intrajejunal in 2 ml, with 25 or 50 mg sodium chenodeoxy cholate, pH 7.5 or 6.5. The method, then: Dosing of salmon calcitonin (sCT) was administered by instillation via the indwelling cannula into the jejunum, followed by flushing with warm sterile water. 8 ml blood samples were removed at various times before and after dosing, and divided into two portions. One portion was allowed to clot at room temperature, and the serum removed and stored at -20° C. until ready for use. The other portion was transferred to heparinised tubes to which 4000 kiu aprotinin was added, and the plasma decanted after centrifugation and stored at -20° C. Serum calcium levels were measured colorimetrically after complexation with the calcium-sensitive chelating agent arsenazo III.
Nine animals were used in the study, and formulations were administered on three separate days, each separated by at least one day, on a random three-way crossover basis, so that all pigs received all three treatments.

The conditions of data set [2]: at the pH values contemplated (7.5 to 9); cited from earlier work.
For data set [3] the following is noted: for pH: MES. The text has this: (§1) The amount of agent necessary to adjust the pH to within the range contemplated is difficult to determine directly because the intestinal pH can vary between 5 to 7, and its aqueous content can vary, as can its intrinsic buffering capacity, which acts to maintain a low pH. Consequently considerations aimed at determining the appropriate quantity of agent controlling pH need to take into account a "worst-case" scenario. An indication may be obtained by observing the pH achieved upon adding a potential pH-adjusting agent to a 50 mM solution of MES (morpholino ethane sulphonic acid) adjusted to pH 6.0.

For data set [4] the following is noted: for pH: water.
Excerpt: as §1
A 0.1M solution of sodium bicarbonate in distilled water was prepared (buffer solution). Similar 0.1M solutions of sodium acetate, sodium borate and sodium carbonate in distilled water were also prepared. These are also referred to in the examples as buffers.

For data set [5] the following is noted: cited from earlier work.
Data set [6] can be described thus: in vitro. As to conditions: human, hbss. The method, then:
(§2) Test solutions were prepared containing various concentrations of a bile salt in either HBSS or in one of the 0.1M buffer solution. The following bile salts were tested:
(§3) A MTT stock solution was prepared at a concentration of 5 mg/ml in distilled water, which was then diluted 1:10 with TCM before use.
(§4) Test plates were set up by aliquotting 200 μl of a Caco-2 cell suspension containing 1×10^5 cells/ml into wells of a 96-well microtitre plate. The outermost wells on each plate were left blank, and filled with 200 μl saline, to counteract the effects of evaporation. The cells were is incubated in high glucose DMEM tissue culture medium (TCM) at 37° C., 5% CO2 in air, for 8 days, with feeding when necessary.
(§5) MTT is a tetrazolium salt which is converted by mitochondrial dehydrogenases in viable cells to form an insoluble purple crystal. Dead cells would not effect this conversion. Crystal formation can be quantified colorimetrically and used to asses mitochondrial activity and therefore cell viability. The preparation of MTT stock solution, test solutions and buffer solution is described above.
(§6) In this procedure, cells are first incubated with test materials and then incubated with MTT and measurements are made to determine the extent to which incubation with test materials has altered the mitochondrial activity of the cells. A two hour exposure period is used together with a three hour recovery period during which time staining is conducted.
(§7) TCM was removed from each well and replaced with 150 Al of the appropriate buffer.
(§8) Buffer was removed from wells in column 2 and replaced with 150 μl of test solutions at the highest concentration.
(§9) 150 μl of test solutions was added to each of wells in column 3, mixed gently by aspirating repeatedly, and 150 μl transferred to wells in column 4. This process was repeated down the plate to obtain two-fold serial dilutions of test material along each row. […]
(§10) Absorbances were measured on a plate reader as the difference between 550 and 650 nm, and readings compared with buffer controls to assess change in mitochondrial activity. […]

Data set [7] in a line: in vitro. As to conditions: human, hbss. The method, then:
(§11) A neutral red stock solution was prepared at concentration of 0.5 mg/ml in DMEM (Dulbecco's Modified Eagle Medium) (pH 4.5) which was then diluted 1:10 with TCM (Tissue Culture Medium) or Hanks Balanced Salt Solution (HBSS) before use.
as §2
Test plates were set up by aliquotting 200 μl of a Caco-2 cell suspension containing 1×10^5 cells/ml into each well of a 96-well microtitre plate. The outermost wells were filled with 200 μl saline alone, to counteract the effects of evaporation. The cells were incubated in high glucose Dulbecco's modified eagles medium (DMEM) tissue culture medium (TCM) at […], 5% CO2 in air, for 8 days, with feeding where necessary. The cells were then used for performance of either an initial insult or a recovery study. […]
Neutral red stain is actively taken up by viable cells. Cells with more permeable membranes will lose stain into the bathing medium and thus cell membrane permeability can be directly assessed after exposure to the test material by quantifying the stain remaining in the cell. […]
In order to quantify the amount of stain remaining in the cells, absorbances were measured on a plate reader at 550 nm, and readings compared with buffer controls to assess leakage of the stain from the cells. […]
The source holds these as a separate data set.

A short description of data set [8]: in vitro. As to conditions: human, hbss. As to the method: as §11, §2
(§12) Test plates were set up by aliquotting 200 μl of a Caco-2 cell suspension containing 1×10^5 cells/ml into each well of a 96-well microtitre plate. The outermost wells were filled with 200 μl saline alone, to counteract the effects of evaporation. The cells were incubated in high glucose Dulbecco's modified eagles medium (DMEM) tissue culture medium (TCM) at […], 5% CO2 in air, for 8 days, with feeding where necessary. The cells were then used for performance of either an initial insult or a recovery study.
(§13) B. Recovery from Toxic Insult
(§14) Neutral red stain is actively taken up by viable cells and non-viable cells will not stain. Cells with increased cell membrane permeability will have a reduced stain content. […] A 2-hour exposure period is used together with a 3-hour recovery period in optimal growth material during which stain is taken up. The following protocol was followed:
(§15) TCM was removed from each well and replaced with 150 μl of the appropriate buffer.
as §8
(§16) 150 μof test solutions was added to each of wells in column 3, mixed gently by aspirating repeatedly, and 150 μl transferred to wells in column 4. This process was repeated down the plate to obtain two-fold serial dilutions of test material along each row. One row on each plate was allocated to HBSS as a control, and one row for a buffer control if necessary. The cells were incubated for 2 hours at 37° C. in CO2.
(§17) The supernatant liquid was then removed from cell monolayers in each well and replaced with 200 μl of stain.
(§18) The plates were incubated for 3 hours at 37° C., 5% CO2. […]
This is another data set of the same source.

In data set [9] the test system is Caco-2 cells. Briefly: in vitro. As to the method:
as §2, §3, §4, §5, §6, §7, §8, §9, §10

Data set [10] relates to Caco-2 cells. The data set can be described thus: in vitro. The method, then:
as §11, §2, §12, §13, §14, §15, §8, §16, §17, §18
The source holds these as a separate data set.

The conditions of data set [11]: sodium cholate (Kojima et al); cited from earlier work.

For salmon calcitonin [sCT], the “efficacy of bile salts in enhancing uptake of calcitonin (plasma calcium concentration with time, FIG. 6)” value in data set [1] was “dependent on the concentration of bile salt present, and the pH at which it is administered”.
For insulin, the solubility entry in data set [2] was “poorly soluble”.
Turning to `O=C(O)O` [Bicarbonate, sodium bicarbonate], the pH came to 6.42 in data set [3] (0.002 M); 6.58 in data set [3] (0.004 M); 6.86 in data set [3] (0.008 M); 7.14 in [3] (0.016 M); 7.40 in [3] (0.031 M); 7.68 in data set [3] (0.062 M). Further, the pH in data set [3] (0.500 M) came to 8.05; in [3] (1.000 M) it was 7.96; in data set [4] (0.002 M), 8.86; in data set [4] (0.004 M), 8.67; in data set [4] (0.008 M), 8.63; in data set [4] (0.016 M), 8.57. The pH in data set [4] (0.031 M) was found to be 8.55; in data set [4] (0.062 M), 8.49; in data set [4] (0.500 M), 8.16; in data set [4] (1.000 M), 8.02. In addition, the “pH in the gut” value in data set [3] (about 0.045M (about 40 mg sodium bicarbonate in 10 ml)) is on record as “about 7.5”. Further, the “pH of 0.1M solution” value in data set [4] (0.1M, confirmed at the end of each of the experiments) is listed as ~8.0. The “pH of saturated solution” value in data set [4] (saturated (<2M) in water) is listed as 8.01.
For somatostatin, the bioavailability of somatostatin entry in data set [5] (with a cholanic acid derivative such as chenodeoxycholic acid or ursodeoxycholic acid (GB-A-2244918)) is listed as “can be improved”.
Consider `C[C@H](CCC(=O)NCC(=O)O)[C@H]1CC[C@H]2[C@@H]3[C@H](O)C[C@@H]4C[C@H](O)CC[C@]4(C)[C@H]3C[C@H](O)[C@]12C` [Glycocholate, sodium glycocholate], for which, in [5] (in combination with taurocholate or glycocholate (Kakemi et al)), the “bioavailability of various substances” value is reported as “could be increased”.
Regarding `C[C@H](CCC(=O)NCCS(=O)(=O)O)[C@H]1CC[C@H]2[C@@H]3CC[C@@H]4C[C@H](O)CC[C@]4(C)[C@H]3C[C@H](O)[C@]12C` [Taurodeoxycholate, sodium taurodeoxycholate], the MNTC at 2 h in the data set “in vitro [6]”, in the data set “in vitro [7]” and in “in vitro [8]” was 313 µg/mL each time.
On to `C[C@H](CCC(=O)O)[C@H]1CC[C@H]2[C@@H]3[C@H](O)C[C@@H]4C[C@H](O)CC[C@]4(C)[C@H]3CC[C@]12C` [Chenodeoxycholate, sodium chenodeoxycholate], for which, in the data set with Caco-2 cells [9], the “percentage reduction in mitochondrial activity (FIG. 5)” value is “a marked reduction in toxicity is achieved under conditions of elevated pH”. In the data set with Caco-2 cells [10], the “percentage release of stain (FIG. 4)” value was “much less stain is released from cells which have been incubated at pH above 7.5”.
With `C[C@H](CCC(=O)NCC(=O)O)[C@H]1CC[C@H]2[C@@H]3CC[C@@H]4C[C@H](O)CC[C@]4(C)[C@H]3C[C@H](O)[C@]12C` [Glycodeoxycholate, sodium glycodeoxycholate], the MNTC at 2 h in “in vitro [6]”, in “in vitro [7]” and in the data set “in vitro [8]” was 313 µg/mL throughout.
For the molecule `C[C@H](CCC(=O)O)[C@H]1CC[C@H]2[C@@H]3[C@H](O)C[C@@H]4C[C@H](O)CC[C@]4(C)[C@H]3C[C@H](O)[C@]12C` [Cholate, sodium cholate], in [11], the “release of cell membrane components” value is “accelerated”. In addition, the “absorption of various substances” value in data set [5] (sodium cholate (Kojima et al)) is “capable of increasing the absorption of various substances”.
